Data on eleven compounds can be found in US6121239A, “Peptide substrates for the identification of factor Xa” (Serbio, priority 1990, dated 2000).

Structures are written as SMILES. Non-standard residues stand in square brackets, D forms with d. Residues, ends and D or L forms follow the SMILES beside them. *: point of attachment. pNA = O=[N+]([O-])c1ccc(N*)cc1; X1 = COC(=O)CC(=O)*; Ms = CS(=O)(=O)*

Sequence of Factor Xa (P00742 235-488 limits assumed): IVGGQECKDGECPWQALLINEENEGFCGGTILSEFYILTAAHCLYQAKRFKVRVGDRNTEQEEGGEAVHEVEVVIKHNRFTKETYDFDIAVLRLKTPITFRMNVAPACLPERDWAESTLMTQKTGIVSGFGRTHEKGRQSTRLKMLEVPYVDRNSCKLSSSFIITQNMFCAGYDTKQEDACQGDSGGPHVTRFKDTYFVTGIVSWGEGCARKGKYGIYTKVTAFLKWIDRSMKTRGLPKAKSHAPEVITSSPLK
Sequence of Factor Xa (P00742 41-179 partner limits assumed): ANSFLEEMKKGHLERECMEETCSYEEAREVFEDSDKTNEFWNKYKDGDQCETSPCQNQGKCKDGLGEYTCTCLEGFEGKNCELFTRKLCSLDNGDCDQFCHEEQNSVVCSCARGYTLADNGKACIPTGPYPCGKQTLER

For this assay, the target named is Factor Xa (Homo sapiens, UniProt P00742). As to the kind of experiment: Activity towards Factor Xa: hydrolysis rate by variation in optical density with time (ΔOD/min). In kind it is biochemical. To be noted: hydrolysis rate (ΔOD/min) at equimolar doses; activity of reference product CP 1 specified as 100%. As to the method:
The activity of the peptides according to the invention towards Factor Xa was determined by one of the conventional methods, such as the one described in EP-A-0 280 160 (see page 14), the hydrolysis rate being assessed by the variation in optical density with time (ΔOD/min). The results obtained at equimolar doses have been collated in Table III below, where the activity of the reference product CP 1 is specified as being equal to 100% for the sake of convenience.
For the compound `CC(C)C[C@@H](NS(C)(=O)=O)C(=O)NCC(=O)N[C@@H](CCCNC(=N)N)C(=O)Nc1ccc([N+](=O)[O-])cc1` [CP 1, reference compound] (Ms-[dL]-Gly-Arg-pNA), the “Activity (activity towards Factor Xa)” value is given as 100%. Next, `COC(=O)CC(=O)N[C@H](CC(C)C)C(=O)NCC(=O)N[C@@H](CCCNC(=N)N)C(=O)Nc1ccc([N+](=O)[O-])cc1` [Ex. 1, MM-D-Leu-Gly-L-Arg-pNA.AcOH]: 115%; `CCOC(=O)CC(=O)N[C@H](CC(C)C)C(=O)NCC(=O)N[C@@H](CCCNC(=N)N)C(=O)Nc1ccc([N+](=O)[O-])cc1` [Ex. 2, EM-D-Leu-Gly-L-Arg-pNA]: 132%. Take `CCCC[C@@H](NC(=O)CC(=O)OC)C(=O)NCC(=O)N[C@@H](CCCNC(=N)N)C(=O)Nc1ccc([N+](=O)[O-])cc1` [Ex. 14, MM-D-Nle-Gly-L-Arg-pNA]: the “Activity (activity towards Factor Xa)” value was determined as 140%. `CC[C@@H](C)[C@@H](NC(=O)CC(=O)OC)C(=O)N[C@@H](CCC(=O)OC)C(=O)NCC(=O)N[C@@H](CCCNC(=N)N)C(=O)Nc1ccc([N+](=O)[O-])cc1` [Ex. 33, MM-D-Ile-L-Glu(OMe)-Gly-L-Arg-pNA] (X1-[dI]E(OMe)GR-pNA): the “Activity (activity towards Factor Xa)” value came to 105%. Regarding `COCCOC(=O)N[C@H](CC(C)C)C(=O)NCC(=O)N[C@@H](CCCNC(=N)N)C(=O)Nc1ccc([N+](=O)[O-])cc1` [Ex. 61, Me-OCH2 CH2 O-CO-D-Leu-Gly-L-Arg-pNA.AcOH], the “Activity (activity towards Factor Xa)” value is given as 145%. Next, `COCCOCCOC(=O)N[C@H](CC(C)C)C(=O)NCC(=O)N[C@@H](CCCNC(=N)N)C(=O)Nc1ccc([N+](=O)[O-])cc1` [Ex. 62, Me-O(CH2 CH2 O)2 -CO-D-Leu-Gly-L-Arg-pNA.AcOH]: 105%; `COCCOCCOCCOC(=O)N[C@H](CC(C)C)C(=O)NCC(=O)N[C@@H](CCCNC(=N)N)C(=O)Nc1ccc([N+](=O)[O-])cc1` [Ex. 63, MeO(CH2 CH2 O)3 -CO-D-Leu-Gly-L-Arg-pNA]: 110%; `COCCOCCOCCOCCOCCOCCOCCOC(=O)N[C@H](CC(C)C)C(=O)NCC(=O)N[C@@H](CCCNC(=N)N)C(=O)Nc1ccc([N+](=O)[O-])cc1` [Ex. 64, Me-O(CH2 CH2 O)7 -CO-D-Leu-Gly-L-Arg-pNA.AcOH]: 103%. Next, `CCCC[C@@H](NC(=O)OCCOCCOCCOC)C(=O)NCC(=O)N[C@@H](CCCNC(=N)N)C(=O)Nc1ccc([N+](=O)[O-])cc1` [Ex. 73]: 121%. On to `CCCCOCCOCCOCCOCCOCCOCCOCCOC(=O)N[C@H](CCCC)C(=O)NCC(=O)N[C@@H](CCCNC(=N)N)C(=O)Nc1ccc([N+](=O)[O-])cc1` [Ex. 101], for which the “Activity (activity towards Factor Xa)” value worked out at 124%.
